Patent US20100093725A1, “SEMI-SOLID FORMULATIONS OF PHOSPHOLIPASE ENZYME INHIBITORS” (Wyeth, priority 2006, published 2010)

How the values were obtained:
[1] = Solubility at room temperature in water, acid and basic conditions; assay type: physicochemical; settings: aqueous solution under acid conditions (free acid form), aqueous buffer, HPLC detection limit, read-out: intrinsic solubility of the free acid
Method: The solubility of 4-(3-{5-chloro-1-(diphenylmethyl)-2-[2-({[2-(trifluoromethyl)benzyl]sulfonyl}amino)ethyl]-1H-indol-3-yl}propyl)benzoic acid was measured at room temperature in water, acid and basic conditions.

[2] = tested on: carrageenan-induced paw edema; experiment: Rat carrageenan-induced paw edema (CPE) study; assay type: in vivo
Method: Data from a rat carrageenan-induced paw edema (CPE) study indicated the minimum efficacious exposure of 4-(3-{5-chloro-1-(diphenylmethyl)-2-[2-({[2-(trifluoromethyl)benzyl]sulfonyl}amino) ethyl]-1H-indol-3-yl}propyl)benzoic acid was 1360 ng*hr/ml.

O=C(O)c1ccc(CCCc2c(CCNS(=O)(=O)Cc3ccccc3C(F)(F)F)n(C(c3ccccc3)c3ccccc3)c3ccc(Cl)cc23)cc1 [4-(3-{5-chloro-1-(diphenylmethyl)-2-[2-({[2-(trifluoromethyl)benzyl]sulfonyl}amino)ethyl]-1H-indol-3-yl}propyl)benzoic acid]
solubility [1]: < 0.031 µg/mL
minimum efficacious exposure [2]: 1360 ng·h/mL
